We go through eight compounds from patent EP2987533B1, “7-substituted piperazin-1-yl fluoroquinolone compounds, their use in the treatment of cancer, pharmaceutical compositions and a method for preparation” (priority 2014, dated 2016).

The data set deals with 60 human tumor cell line panel. Description: NCI 60 cell line one-dose SRB primary anticancer assay. It counts as cell-based. The settings on record: 60 cell lines assay in one dose, 10µM (title; head prints 10.0 mM), 48 h; for inhibition at 10 µM: Homo sapiens, read-out: MGI % (Mean growth inhibition percentage). The protocol: A primary anticancer assay was performed for an approximately 60 human tumor cell line panel derived from nine neoplastic diseases, in accordance with the protocol of the Drug Evaluation Branch, National Cancer Institute, Bethesda, MD (Monks A. et al., J. Natl. Cancer Inst 1991, 83, 757-766; Boyd M.R. and Paull K.D., Drug. Dev. Res. 1995, 34, 91-109; Shoemaker R.H., Nat. Rev. Cancer 2006, 6, 813-823). Briefly, tested compounds were added to the culture at a single concentration (10^-5M), and the cultures were incubated for 48 h. End point determinations were made with a protein binding dye, sulforhodamine B (SRB). The results for each tested compound were reported as the growth percentage of the treated cells when compared to that of the untreated control cells. The percentage growth was evaluated spectrophotometrically versus controls not treated with test agents.

The term inhibition denotes the change of the read-out against control, counted positive when it falls. For the compound `O=C(O)c1cn(C2CC2)c2cc(N3CCN(CCCN4C(=O)c5ccccc5C4=O)CC3)c(F)cc2c1=O` [Compound 10b], the “Most sensitive cell lines” value is given as “Leukemia (CCRF-CEM, PRMI-8226), Renal Cancer (UO-31)”; the “PCE (Positive cytotoxic effect: ratio between number of cell lines with percentage growth inhibition from 10 to >100 and total number of cell lines)” value is on record as 3/57; the “RGI % (Range of growth inhibition percentage)” value fell in the range of 38.76 to 13.64%; the inhibition at 10 µM is -4.16%.

For the compound `CCn1cc(C(=O)O)c(=O)c2cc(F)c(N3CCN(S(=O)(=O)c4ccc(OC)c(OC)c4)CC3)cc21` [Compound 4a], the “Most sensitive cell lines” value is recorded as “Leukemia (MOLT-4, SR), CNS Cancer (SF-268, SNB-75) Melanoma (LOX IMVI, M14), Renal Cancer (UO-31), Prostate Cancer (PC-3), Breast Cancer (T-47D)”; the “PCE (Positive cytotoxic effect: ratio between number of cell lines with percentage growth inhibition from 10 to >100 and total number of cell lines)” value is on record as 9/58; the inhibition at 10 µM was 2.33%.

Take `O=C(O)c1cn(C2CC2)c2cc(N3CCN(S(=O)(=O)c4ccc(Cl)cc4)CC3)c(F)cc2c1=O` [Compound 1b]: the “Most sensitive cell lines” value is “Melanoma (LOX IMVI, M14), Renal Cancer (A498, CAKI-1, UO-31), Prostate Cancer (PC-3), Breast Cancer (T-47D)”; the “PCE (Positive cytotoxic effect: ratio between number of cell lines with percentage growth inhibition from 10 to >100 and total number of cell lines)” value is recorded as 7/53; the “RGI % (Range of growth inhibition percentage)” value fell in the range of 59.75 to 10.12%; the inhibition at 10 µM is 3.5%.

With `COc1ccc(S(=O)(=O)N2CCN(c3cc4c(cc3F)c(=O)c(C(=O)O)cn4C3CC3)CC2)c(OC)c1` [Compound 5b], the “Most sensitive cell lines” value is given as “Leukemia (CCRF-CEM, HL-60(TB), K-562, MOLT-4, PRMI-8226, SR), NSC Lung Cancer (HOP-62, NCI-H226), CNS Cancer (SF-268, SF-539, SNB-19, SNB-75), Melanoma (LOX IMVI, SK-MEL-5, UACC-62), Renal Cancer (A498, UO-31), Breast Cancer (T-47D, MDA-MB-468)”; the “PCE (Positive cytotoxic effect: ratio between number of cell lines with percentage growth inhibition from 10 to >100 and total number of cell lines)” value is recorded as 19/58; the “RGI % (Range of growth inhibition percentage)” value lay within 46.83 to 10.48%; the inhibition at 10 µM was determined as 7.33%.

Consider `O=C(O)c1cn(C2CC2)c2cc(N3CCN(CCN4CCOCC4)CC3)c(F)cc2c1=O` [Compound 8b], for which the “Most sensitive cell lines” value was “NSC Lung Cancer (HOP-92, NCI-H522), Melanoma ( MALME-3M), Renal Cancer (UO-31), Prostate Cancer (PC-3)”; the “PCE (Positive cytotoxic effect: ratio between number of cell lines with percentage growth inhibition from 10 to >100 and total number of cell lines)” value is 5/57; the “RGI % (Range of growth inhibition percentage)” value is on record as 24.51 to 10.05%; the inhibition at 10 µM is -2.2%.

For the compound `O=C(O)c1cn(C2CC2)c2cc(N3CCNCC3)c(F)cc2c1=O` [Ciprofloxacin (b), Ciprofloxacin, reference compound], the “Most sensitive cell lines” value is on record as “Renal Cancer (UO-31, A498)”; the “PCE (Positive cytotoxic effect: ratio between number of cell lines with percentage growth inhibition from 10 to >100 and total number of cell lines)” value is 2/57; the “RGI % (Range of growth inhibition percentage)” value is recorded as 28.85 to 13.76%; the inhibition at 10 µM was -1.41%.

For `COc1ccc(S(=O)(=O)N2CCN(c3cc4c(cc3F)c(=O)c(C(=O)O)cn4C3CC3)CC2)cc1OC` [Compound 4b], the “Most sensitive cell lines” value is “NSC Lung Cancer (HOP-62, HOP-92), CNS Cancer (SNB-75), Melanoma (LOX IMVI), Renal Cancer (UO-31), Breast Cancer (T-47D)”; the “PCE (Positive cytotoxic effect: ratio between number of cell lines with percentage growth inhibition from 10 to >100 and total number of cell lines)” value was 6/58; the “RGI % (Range of growth inhibition percentage)” value is listed as 35.09 to 10.43%; the inhibition at 10 µM is 1.84%.

Regarding `O=C(O)c1cn(C2CC2)c2cc(N3CCN(CCN4C(=O)c5ccccc5C4=O)CC3)c(F)cc2c1=O` [Compound 9b], the “Most sensitive cell lines” value is listed as “CNS Cancer (SNB-75), Renal Cancer (UO-31), Breast Cancer (MCF7)”; the “PCE (Positive cytotoxic effect: ratio between number of cell lines with percentage growth inhibition from 10 to >100 and total number of cell lines)” value is on record as 3/58; the “RGI % (Range of growth inhibition percentage)” value was 36.83 to 13.18%; the inhibition at 10 µM is -2.69%.
